Measurements reported in US12466819B2, “Tricyclic compounds with OMA1/OPA1 modulatory properties” (712 North Inc., priority 2019, dated 2025).
Entries after “also recorded” stand apart in the source; their conditions may differ. Where two headings read alike, the source gives them in different places. Blank lines part the entries; values can stand above or below the compound they belong to.

Assays:
[1] = molecular target: T1, OMA1 protease (OPA1 cleavage) (Mus musculus, UniProt Q9D8H7); test: OPA1 cleavage in Neuro2A cells by OPA1 Western blotting; assay type: cell-based; conditions: 100 μM sorafenib; for OPA1 cleavage after 30 minutes: 5 μM CCCP, 1 μM valinomycin; for OPA1 cleavage after 3 hours: 100 μM trichostatin A
T1 construct: endogenous in cells; host or cells: Neuro2A cells
T1 sequence (Q9D8H7 140-521): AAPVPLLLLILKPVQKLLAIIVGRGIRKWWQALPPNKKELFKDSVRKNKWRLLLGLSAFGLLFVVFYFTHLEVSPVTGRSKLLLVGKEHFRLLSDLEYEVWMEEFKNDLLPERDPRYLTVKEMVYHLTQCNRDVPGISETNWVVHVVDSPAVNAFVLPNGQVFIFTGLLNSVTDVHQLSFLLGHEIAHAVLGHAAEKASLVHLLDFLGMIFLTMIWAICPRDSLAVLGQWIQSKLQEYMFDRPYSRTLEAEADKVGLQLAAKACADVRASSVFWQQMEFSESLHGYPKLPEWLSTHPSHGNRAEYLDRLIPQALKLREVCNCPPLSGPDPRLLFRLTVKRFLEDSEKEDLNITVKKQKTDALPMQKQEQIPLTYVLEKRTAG
From the text: FIG. 1. A: The YME1L1 protease regulates the OPA1 ratios under physiological conditions (a). The OMA1 protease converts all OPA1 isoforms to S-OPA1 under conditions broadly defined as stress conditions (b). […] OMA1 knock-down could prevent OPA1 hydrolyses in these experiments. C: Quantification of OMA1 protein levels in Western blots upon OMA1 knock-down (mean±S.D.; p≤0.05; n=3). D: Different chemicals and combinations of chemicals altered the OPA1 ratios in 293T cells. E: Neuro2A cells were treated with the indicated agents for 30 minutes or 3 hours, respectively.
(§1) A nonlimiting example of a method of testing compounds for their efficacy to induce OPA1-cleavage and/or OMA1 activation is provided in FIG. 1, for which human 293T cells or mouse Neuro2A cells were treated with different agents and subsequently tested for OPA1-hydrolysis by Western blotting. […] OPA1 cleavage in these experiments is OMA1 dependent, because knock-down of the protease preserved L-OPA1 (FIG. 1B & 1C).
Another example is provided in FIG. 1E, for which Neuro2A cells were treated with different reagents for 30 minutes or 3 hours prior to the assessment of OPA1 by Western blotting. Some compounds acted faster while others were slower in altering the OPA1 ratios. […] Trichostatin A had no effect even after 3 hours of treatment. […] In certain embodiments, a pharmaceutical composition comprising an effective amount of sorafenib or a derivate, a prodrug or a pharmaceutical acceptable salt thereof and an effective amount of temozolomide or a derivate, a prodrug or a pharmaceutical acceptable salt thereof is administered to a subject with cancer.

[2] = molecular target: T2, OMA1 protease (OPA1 cleavage) (Homo sapiens, UniProt Q96E52); test: OPA1 cleavage / OMA1 activation in 293T cells by OPA1 Western blotting; assay type: cell-based; conditions: for OPA1 cleavage by compound alone, 100 μM: 100 μM (up to 100 μM for VI); for critical CCCP concentration (threshold-level) for L-OPA1 cleavage after preincubation with compound: 30 μM compound for 60 minutes; for OPA1 cleavage with compound plus 1 μM CCCP: 60 minutes compound (30 μM MMP2/9 inhibitor IV, 300 μM temozolomide, 100 μM amoxapine), then 1 μM CCCP for 30 minutes
T2 construct: endogenous in cells; host or cells: 293T cells
T2 sequence (Q96E52 144-524): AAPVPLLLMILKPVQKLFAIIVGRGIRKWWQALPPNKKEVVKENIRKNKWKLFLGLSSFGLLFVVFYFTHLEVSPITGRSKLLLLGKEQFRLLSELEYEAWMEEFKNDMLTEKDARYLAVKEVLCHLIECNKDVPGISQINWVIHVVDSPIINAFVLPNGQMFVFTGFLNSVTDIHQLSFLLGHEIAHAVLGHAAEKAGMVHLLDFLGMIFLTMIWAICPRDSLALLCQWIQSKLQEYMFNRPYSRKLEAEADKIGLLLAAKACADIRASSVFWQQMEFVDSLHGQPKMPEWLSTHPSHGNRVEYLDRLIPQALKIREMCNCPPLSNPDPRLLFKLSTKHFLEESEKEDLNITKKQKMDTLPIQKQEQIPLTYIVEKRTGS
Description: FIG. 6. A: 293T cells were treated with 0 μM, 1 μM, 2 μM, 3 μM, 4 μM, or 5 μM CCCP for 30 minutes after which OPA1 was analyzed by Western blotting. […] E: OPA1 cleavage in Neuro2A cells treated with 30 μM of the indicated agents for 90 minutes (60 min preincubation plus 30 min of CCCP).
FIG. 7. Compounds of present invention can lower CCCP-levels for OMA1 activation gauged by OPA1 cleavage in Western blots. A-C: 293T cells were treated with the denoted concentrations of compound VII, IV and V for 60 minutes before CCCP was added for an additional 30 minutes. D-E: 293T cells were treated with the denoted concentrations of compound VII, IV and V for 6 hours before CCCP was added for an additional 30 minutes.
FIG. 11. A: A likely binding pose of a compound of present invention illustrates aspects of the drug-target interaction. B: 293T cells were treated with the denoted concentrations of compound for 90 minutes before cells were harvested and analyzed by OPA1 Western blotting. C: 293T cells were treated with the denoted concentrations of compound VI for 60 minutes and another 30 minutes with 1 μM CCCP before cells were harvested and analyzed by OPA1 Western blotting.
as §1
A nonlimiting example illustrates specific features of certain compounds disclosed herein and teaches how potency of such compounds can be further improved. To this end, compound were analyzed for their potential to lower threshold-levels for OPA1 cleavage and/or OMA1 activation using the methods described in Example 3. In one example, L-OPA1 was cleaved in untreated 293T cells at concentrations ≥5 μM CCCP (FIG. 6A, top panel). […] Preincubation with 30 μM MMP2 inhibitor II (CAS #869577-51-5) lowered the threshold-level even further to about 1 μM CCCP (FIG. 6C, bottom panel). The skilled artisan can recognize how (and the not-so-skilled artisan certainly appreciates that) substitutions and modifications of the thiirane-opposed end of the molecule increased potency.

[3] = system: mitochondrial membrane potential Δψ; test: TMRE live-cell assay in 293T cells; conditions: for impact on mitochondrial membrane potential Δψ (TMRE signal): overnight (18 hours), different compound concentrations
Description: (§2) The mitochondrial inner membrane potential Δψ was measured with a cellular TMRE-assay, in which a reduction of Δψ results in a reduced TMRE signal (see insert in A). […] A: Vehicle only. […] D: compound VII. E: compound IV. F: compound V.
(§3) It is well established in the art that CCCP can lower the mitochondrial membrane potential Δψ. […] 293T cells were cultured overnight with different compound concentrations after which TMRE fluorescence was measured with a fluorescence plate-reader (FIG. 10).

[4] = system: mitochondrial membrane potential Δψ
Description: as §2, §3

OMA1 = molecular target: T3, OMA1 (Homo sapiens, UniProt Q96E52); test: Luciferase-based cellular reporter of enzymatic OMA1 activity in 293T cells; assay type: cell-based; conditions: 293T reporter cells; for OMA1 activation without stress-stimulus at 40 μM: overnight, no CCCP or valinomycin
T3 construct: 293T cells stably transfected with the reporter enzyme were incubated with increasing concentrations of a compound and 30 nM valinomycin; endogenous in cells; host or cells: 293T cells stably transfected with a luciferase-based reporter enzyme (only the reporter is transfected, not OMA1)
T3 sequence (Q96E52 144-524): T2 sequence (Q96E52 144-524)
Description: FIG. 8. 293T cells expressing a luciferase-based cellular reporter were incubated for 1 hour with increasing concentrations of the denoted compounds in cell culture media with 30 nM valinomycin before luciferase substrate was added and light emission measured. OMA1 activity decreases the light signal of the reporter in this assay. A: Vehicle only. […] C: amoxapine. D: compound VII. E: compound IV. F: compound V.
FIG. 9. 293T cells expressing a luciferase-based cellular reporter were incubated overnight with increasing concentrations of the denoted compounds. Luciferase substrate was added the next day and light emission measured. A: Vehicle only. […] C: amoxapine. D: compound VII. E: compound IV. F: compound V.
The following non-limiting examples illustrate some aspects of the mechanism of action of the compounds disclosed herein. An alternative method of measuring enzymatic OMA1 activity makes use of a luciferase-based cellular reporter, which can be transiently or stably expressed in eukaryotic cells. In this assay, OMA1 cleaves the reporter enzyme upon activation and thereby obliterates the luciferase signal. 293T cells stably transfected with the reporter enzyme were incubated with increasing concentrations of a compound and 30 nM valinomycin. Valinomycin is known in the art to induce OPA1 cleavage (see, for example, Head B., et al. “Inducible proteolytic inactivation of OPA1 mediated by the OMA1 protease in mammalian cells.” J Cell Biol. 2009; 187(7):959-66, as well as FIG. 1E). […] This specific example illustrates how compounds of present invention can activate OMA1 under conditions that would otherwise not lead to OMA1 activation. This example also provides an independent validation of the results obtained by Western blotting.
Incubation time is a variable of OMA1 activation for certain compounds (see, for example, sorafenib in FIG. 1E). To investigate whether compounds of present disclosure would activate OMA1 in the absence of a stress-stimulus such as CCCP or valinomycin, reporter cells were incubated with increasing compound concentrations overnight (FIG. 9). […]

[5] = 293T cells, 90 minutes, absence of CCCP
[6] = 293T cells, pre-incubation of 6 hours before CCCP for an additional 30 minutes
[7] = 293T cells, then CCCP for another 30 minutes
[8] = cells treated 60 minutes with compound, then CCCP for another 30 minutes

SMILES: N#CC(C#N)=NNc1cccc(Cl)c1 [CCCP]
- OPA1 cleavage after 30 minutes [1]: enough to induce OPA1 cleavage
- OPA1 cleavage by 1 μM CCCP alone ([2]; 293T cells, 1 μM CCCP, 30 minutes): did not induce OPA1 cleavage
- L-OPA1 cleavage by 10 μM CCCP ([2]; 293T cells, 10 μM CCCP, 30 minutes): resulted in L-OPA1 cleavage
- CCCP concentration at which L-OPA1 was cleaved ([2]; untreated 293T cells, CCCP 30 minutes): ≥ 5 µM
- TMRE signal with 0.6 μM CCCP ([3]; 0.6 μM CCCP): significantly reduced the TMRE signal

SMILES: O=C1Nc2ccccc2Oc2ccc(S(=O)(=O)CC3CS3)cc21 (stereo not drawn) [Compound VI]
- conversion of L-OPA1 isoforms at 300 nM ([2]; 293T cells, 300 nM compound, presence of 1 μM CCCP): fully convert all L-OPA1 isoforms
- OPA1 cleavage by compound alone, 100 μM [2, 5]: did not induce OPA1 cleavage
- effective dose (OPA1 cleavage) ([2]; 293T cells, 60 minutes compound, another 30 minutes with 1 μM CCCP): 300 nM
- effective dose better than compound IV ([2]; 293T cells, with CCCP): 10 times
- more potent in inducing OPA1 hydrolysis than MMP2/9 inhibitor IV or amoxapine ([2]; 293T cells, with CCCP): 100 times

SMILES: O=S(=O)(CC1CS1)c1ccc(Oc2ccccc2)cc1 (stereo not drawn) [MMP2/9 inhibitor IV]
- impact on mitochondrial membrane potential Δψ (TMRE signal) [4]: only little impact on Δψ
- critical CCCP concentration (threshold-level) for L-OPA1 cleavage after preincubation with compound [2, 7]: about 2 μM
- OPA1 cleavage by compound alone, 30 μM ([2]; 293T cells, 30 μM, 90 minutes, absence of CCCP): did not induce OPA1 cleavage
- OPA1 cleavage by compound alone, 100 μM [2, 5]: no effects on L-OPA1
- OPA1 cleavage with compound plus 1 μM CCCP ([2]; 293T cells): led to OPA1 cleavage

SMILES: CC(/C=C/C(=O)NO)=C\[C@@H](C)C(=O)c1ccc(N(C)C)cc1 [Trichostatin A, trichostatin A]
- OPA1 cleavage after 3 hours [1]: no effect

SMILES: CC(C)[C@@H]1NC(=O)[C@H](C)OC(=O)[C@@H](C(C)C)NC(=O)[C@@H](C(C)C)OC(=O)[C@H](C(C)C)NC(=O)[C@H](C)OC(=O)[C@@H](C(C)C)NC(=O)[C@@H](C(C)C)OC(=O)[C@H](C(C)C)NC(=O)[C@H](C)OC(=O)[C@@H](C(C)C)NC(=O)[C@@H](C(C)C)OC1=O [valinomycin]
- OPA1 cleavage after 30 minutes [1]: enough to induce OPA1 cleavage
- effect of 30 nM valinomycin alone on reporter signal (OMA1; 1 hour, 30 nM valinomycin, vehicle only): only little effects

Further lines, with some results ahead:

- OPA1 cleavage at the tested concentrations after extended pre-incubation [2, 6]: did result in OPA1 cleavage
- potency (effective dose) after extended pre-incubation [2, 6]: about 1 μM
- impact on mitochondrial membrane potential Δψ (TMRE signal) [3]: only little impact on Δψ
SMILES: O=C1Nc2ccccc2Oc2ccc(S(=O)(=O)CC3CO3)cc21 (stereo not drawn) [Compound V]
- efficacy in OPA1 cleavage in the presence of CCCP ([2]; 293T cells, 60 minutes compound, then CCCP 30 minutes): some efficacy; also recorded: overall little activity

- impact on mitochondrial membrane potential Δψ (TMRE signal) [3]: only little impact on Δψ
SMILES: C=CCSc1ccc2c(c1)C(=O)Nc1ccccc1O2 [IV, 2-(allylthio)dibenzo[b,f][1,4]oxazepin-11(10H)-one]

- critical CCCP concentration (threshold-level) for L-OPA1 cleavage after preincubation with compound [2, 7]: about 1 μM
- effective dose (OPA1 cleavage) [2, 8]: about 30 μM
SMILES: CS(=O)(=O)Nc1ccc(Oc2ccc(S(=O)(=O)CC3CO3)cc2)cc1 (stereo not drawn) [MMP2 inhibitor II]

- OMA1 activation without stress-stimulus at 40 μM (OMA1): OMA1 activation was noted
- OPA1 cleavage at the tested concentrations after extended pre-incubation [2, 6]: did result in OPA1 cleavage
- effective dose (OPA1 cleavage) [2, 8]: about 10 μM
- increase of potency compared to amoxapine ([2]; from effective doses in 293T cells): about 3 fold
- impact on mitochondrial membrane potential Δψ (TMRE signal) [3]: only little impact on Δψ
SMILES: C=CCSc1ccc2c(c1)C(N1CCNCC1)=Nc1ccccc1O2 [VII]

- OMA1 activation without stress-stimulus at 40 μM (OMA1): OMA1 activation was noted
- OPA1 cleavage with compound plus 1 μM CCCP ([2]; 293T cells): OPA1 cleavage was observed
- impact on mitochondrial membrane potential Δψ (TMRE signal) [3]: only little impact on Δψ
SMILES: Clc1ccc2c(c1)C(N1CCNCC1)=Nc1ccccc1O2 [amoxapine]
- OPA1 cleavage by compound alone, 100 μM [2, 5]: no effect on OPA1 cleavage; also recorded: no perceptible effects

- OPA1 cleavage after 30 minutes [1]: only little effect
- OPA1 cleavage after 3 hours [1]: L-OPA1 was completely converted
SMILES: CNC(=O)c1cc(Oc2ccc(NC(=O)Nc3ccc(Cl)c(C(F)(F)F)c3)cc2)ccn1 [sorafenib]
